Source: paper PMC6589325, “Evaluation of Anti-HIV-1 Integrase and Anti-Inflammatory Activities of Compounds from Betula alnoides Buch-Ham” (Advances in Pharmacological Sciences, 2019)
Read-outs that look alike come from different tables or passages of the source.

Legend:
HIV-1 IN [1] = target: T1, HIV-1 IN (Human immunodeficiency virus type 1 group M subtype B, UniProt P04585); settings: cited from earlier work; for IC50: read-out: IC50 against HIV-1 IN (converted); for Effect against HIV-1 IN: isolated from Coleus parvifolius
T1 construct: using HIV-1 IN enzymes according to the multiplate integration assay (MIA)

[2] = system: RAW264.7 macrophage cells; experiment: Viability assay of RAW264.7 macrophage cells (MTT); settings: 24 h, cytotoxic when viability less than 80% of control
Procedure: The cytotoxicity of the test compounds after 24 h of incubation was determined by the colorimetric method described by Sudsai et al.. A volume of 10 μl of MTT solution (5 mg/ml in PBS) was added to each well of 96-well plates and further incubated in a CO2 incubator for 4 h. The formazan products generated by MTT reduction were dissolved in DMSO. At last, the medium was removed, 100 μl of DMSO was then added to each well and thoroughly mixed by gently tapping on the test plate. The absorbance of formazan solution was measured at a wavelength of 570 nm using a microplate reader. The test compounds were considered to be cytotoxic when the viability of the compound-treated group was less than 80% of that in the control (1% DMSO-treated) group.

[3] = system: LPS-induced nitric oxide production in RAW264.7 cells; experiment: Inhibitory effect on LPS-induced nitric oxide (NO) production in RAW264.7 cells (Griess reagent); type: cell-based; settings: for inhibition at 3 µM / inhibition at 10 µM / inhibition at 30 µM / inhibition at 100 µM: read-out: % Inhibition at various concentration (μM), NO production; for IC50: read-out: IC50, inhibition of LPS-induced NO production
Procedure: To evaluate the anti-inflammatory activity, an inhibitory effect on nitric oxide (NO) production was carried out according to the previous report described by Sudsai et al.. Briefly, RAW264.7 cells were seeded onto 96-well plates (1 × 10^5 cells/well) and were maintained to adhere at 37°C for 1 h in a CO2 incubator containing 5% CO2. They were then cultured in RPMI-1640 medium containing lipopolysaccharide (LPS, 100 ng/ml) together with the test compounds at various concentrations (3–100 μM). After 24 h of incubation, the nitrite (NO^2–) concentration in the culture medium was determined as an indicator of NO production using the Griess reagent to assay the accumulation of NO^2–, a stable metabolite of NO. The absorbance was measured using a microplate reader at 570 nm. In this study, NO synthase inhibitor (L-nitro-arginine, L-NA), nuclear translocation of NF-κB inhibitor (caffeic acid phenethyl ester, CAPE) and nonsteroidal anti-inflammatory drug, NSAID (indomethacin), were used as positive controls.

HIV-1 IN [4] = target: T1, HIV-1 IN; experiment: HIV-1 IN inhibitory activity, multiplate integration assay (MIA); type: biochemical
Procedure: The anti-HIV IN activity of isolated compounds was determined in an in vitro model using HIV-1 IN enzymes according to the multiplate integration assay (MIA) as previously described. Briefly, a mixture (45 μL) composed of 12 μL of IN buffer (containing 150 mM 3-(N-morpholino)propanesulfonic acid, pH 7.2 (MOPS), 75 mM MnCl2, 5 mM dithiothreitol (DTT), 25% glycerol, and 500 μg/mL bovine serum albumin), 1 μL of 5 pmol/mL digoxigenin-labeled target DNA, and 32 μL of sterilized water was added into each well of a 96-well plate. Subsequently, 6 μL of sample solution in DMSO and 9 μL of a 1/5 dilution of the IN enzyme were added to each well and incubated at 37°C for 80 min. After washing the plate three times with PBS with 0.05% Tween 20 (PBST), 100 μL of 500 mU/mL alkaline phosphatase- (AP-) labeled anti-digoxigenin antibody was added and incubated at 37°C for 1 h. The plates were washed with PBS three times. Then, AP buffer (150 μL) containing 100 mM Tris-HCl (pH 9.5), 100 mM NaCl, 5 mM MgCl2, and 10 mM p-nitrophenyl phosphate was added to each well and incubated at 37°C for 1 h. Finally, the absorbance of p-nitrophenol, the final product of the integration reaction, was measured with a microplate reader (Rayto, RT-2100C) at a wavelength of 405 nm. Suramin, a polyanionic HIV-1 IN inhibitor, was used as a positive control.

[5] = read-out: % Inhibition at various concentrations
[6] = mean ± S.E.M. of four determinations, read-out: IC50, anti-HIV-1 integrase activity
[7] = Mus musculus, RAW264.7, 3 μM, LPS 100 ng/ml, 24 h
[8] = Mus musculus, RAW264.7, 10 μM, LPS 100 ng/ml, 24 h
[9] = Mus musculus, RAW264.7, 30 μM, LPS 100 ng/ml, 24 h
[10] = Mus musculus, RAW264.7, 100 μM, LPS 100 ng/ml, 24 h
[11] = Mus musculus, RAW264.7 cells, LPS 100 ng/ml, 24 h

| SMILES | inhibition at 10 µM (HIV-1 IN [4]; [5]) [%] | inhibition at 30 µM (HIV-1 IN [4]; [5]) [%] | inhibition at 100 µM (HIV-1 IN [4]; [5]) [%] | IC50 (HIV-1 IN [4]; [6]) [µM] | inhibition at 3 µM [3, 7] [%] | inhibition at 10 µM [3, 8] [%] | inhibition at 30 µM [3, 9] [%] | inhibition at 100 µM [3, 10] [%] | IC50 [3, 11] [µM] | further results |
| --- | --- | --- | --- | --- | --- | --- | --- | --- | --- | --- |
| Oc1cc(O)c2c(c1)CCc1cc(O)c(O)cc1-2 [2,4,6,7-tetrahydroxy 9,10-dihydrophenanthrene] |  |  |  |  |  |  |  |  |  | IC50 (HIV-1 IN [1]; from bulbils of Dioscorea bulbifera): 14.2 µM |
| Oc1cc(O)c2c(c1)O[C@H](c1ccc(O)c(O)c1)[C@@H](O)C2 [(+)-Catechin] |  |  |  |  |  |  |  |  |  | IC50 (HIV-1 IN [1]; isolated from Albizia procera bark): 46.3 µM |
| C=C(C)[C@@H]1CC[C@]2(CO)CC[C@]3(C)[C@H](CC[C@@H]4[C@@]5(C)CC[C@H](O)C(C)(C)[C@@H]5CC[C@]43C)[C@@H]12 [Betulin (2), betulin] | 41.2 ± 1.5 | 57.6 ± 1.2 | 70.7 ± 2.1 | 17.7 ± 0.6 |  |  |  |  |  | Cytotoxicity to RAW 264.7 cells [2]: caused cytotoxicity; inhibition at 3 µM ([3]; Mus musculus, RAW264.7, 24 h): 2.9 ± 1.9%; inhibition at 10 µM ([3]; Mus musculus, RAW264.7, 24 h): 13 ± 1.6%; inhibition at 30 µM ([3]; Mus musculus, RAW264.7, 24 h): 58 ± 1.1%; inhibition at 100 µM ([3]; Mus musculus, RAW264.7, 24 h): 81.8 ± 1.2%; IC50 ([3]; Mus musculus, RAW264.7, 24 h): 30.1 ± 0.3 µM |
| C=C(C)[C@@H]1CC[C@]2(C(=O)O)CC[C@]3(C)[C@H](CC[C@@H]4[C@@]5(C)CC[C@H](O)C(C)(C)[C@@H]5CC[C@]43C)[C@@H]12 [Betulinic acid (1), betulinic acid] | 39 ± 2.3 | 53.2 ± 1.2 | 65.6 ± 2.1 | 24.8 ± 1.3 | 14.6 ± 2.3 | 22.1 ± 1.2 | 49.4 ± 3.2 | 79.5 ± 1.7 | 31 ± 1.9 |  |
| O=C(/C=C/c1ccc(O)c(O)c1)OCCc1ccccc1 [CAPE, caffeic acid phenethyl ester, reference compound] |  |  |  |  | 22.7 ± 3.1 | 48.6 ± 0.7 | 66.8 ± 0.5 | 85.9 ± 1 | 12.3 ± 0.8 |  |
| COc1ccc2c(c1)c(CC(=O)O)c(C)n2C(=O)c1ccc(Cl)cc1 [Indomethacin, indomethacin, reference compound] |  |  |  |  | 32 ± 2.6 | 43.8 ± 1.2 | 54.1 ± 2 | 79 ± 1.4 | 17.6 ± 1.6 |  |
| NC(=NCCC[C@H](N)C(=O)O)N[N+](=O)[O-] [L-NA, L-nitro-arginine, reference compound] |  |  |  |  |  |  |  |  |  | % Inhibition at various concentration (μM), NO production ([3]; 3 μM, LPS 100 ng/ml, 24 h): 19.3 ± 4.7%; % Inhibition at various concentration (μM), NO production ([3]; 10 μM, LPS 100 ng/ml, 24 h): 22.1 ± 1.9%; % Inhibition at various concentration (μM), NO production ([3]; 30 μM, LPS 100 ng/ml, 24 h): 32.6 ± 3.5%; % Inhibition at various concentration (μM), NO production ([3]; 100 μM, LPS 100 ng/ml, 24 h): 79.7 ± 4.8%; IC50 ([3]; RAW264.7 cells, LPS 100 ng/ml, 24 h): 40.4 ± 6.1 µM |
| C=C(C)[C@@H]1CC[C@]2(C)CC[C@]3(C)[C@H](CC[C@@H]4[C@@]5(C)CC[C@H](O)C(C)(C)[C@@H]5CC[C@]43C)[C@@H]12 [Lupeol (3), lupeol] | 12.2 ± 1.3 | 25.9 ± 2 | 40.6 ± 1.8 | > 100 | 6 ± 1.7 | 11.4 ± 2.7 | 23.4 ± 1.9 | 78.2 ± 1 | 47.3 ± 1 | Cytotoxicity to RAW 264.7 cells [2]: caused cytotoxicity; IC50, anti-HIV-1 integrase activity (HIV-1 IN [4]; mean ± S.E.M. of four determinations): inactive |
| CN1C[C@H](O)C[C@H]1C(=O)O [N-methyl-trans-4-hydroxy-L-proline] |  |  |  |  |  |  |  |  |  | IC50 (HIV-1 IN [1]; from Aglaia andamanica leaves): 81.3 µM |
| CC1(C)CC[C@]2(C(=O)O)CC[C@]3(C)C(=CC[C@@H]4[C@@]5(C)CC[C@H](O)C(C)(C)[C@@H]5CC[C@]43C)[C@@H]2C1 [Oleanolic acid (4), oleanolic acid] | 33.4 ± 1.8 | 49.1 ± 2.2 | 65.5 ± 1.5 |  | 10.9 ± 1.8 | 18.4 ± 1.2 | 28.2 ± 3.2 | 63.4 ± 1 | 62.8 ± 3.6 | IC50 (HIV-1 IN [4]; IC50, anti-HIV-1 integrase activity, mean ± S.E.M. of four determinations): 30.3 ± 1.3 µM |
| Cc1ccc(C(=O)Nc2ccc(S(=O)(=O)O)c3cc(S(=O)(=O)O)cc(S(=O)(=O)O)c23)cc1NC(=O)c1cccc(NC(=O)Nc2cccc(C(=O)Nc3cc(C(=O)Nc4ccc(S(=O)(=O)O)c5cc(S(=O)(=O)O)cc(S(=O)(=O)O)c45)ccc3C)c2)c1 [Suramin, reference compound] | 70.9 ± 1.5 | 93.3 ± 1.3 | 99.9 ± 1.7 | 2.8 ± 0.1 |  |  |  |  |  | inhibition at 1 µM (HIV-1 IN [4]; 1 μM, read-out: % Inhibition at various concentrations): 32.1 ± 0.6%; inhibition at 3 µM (HIV-1 IN [4]; 3 μM, read-out: % Inhibition at various concentrations): 50.3 ± 1.6%; IC50 (HIV-1 IN [4]; mean ± S.E.M. of four determinations, read-out: IC50, anti-HIV-1 IN activity of B. alnoides extract and its fractions (converted)): 3.01 µM |
| C[C@H]1[C@H](C)CC[C@]2(C(=O)O)CC[C@]3(C)C(=CC[C@@H]4[C@@]5(C)CC[C@H](O)C(C)(C)[C@@H]5CC[C@]43C)[C@H]12 [Ursolic acid (5), ursolic acid] | 31.6 ± 0.9 | 48.5 ± 1.2 | 60.2 ± 2.1 | 35 ± 1 | 5.4 ± 2.3 | 10.2 ± 3.2 | 13.6 ± 3.2 | 67.1 ± 1.8 | 68.7 ± 5.9 |  |
| O=C(/C=C/c1ccc(O)cc1)CC(=O)/C=C/c1ccc(O)cc1 [bisdemethoxycurcumin] |  |  |  |  |  |  |  |  |  | IC50 (HIV-1 IN [1]; from rhizomes of Boesenbergia kingii): 47.7 µM |
| COc1cc(O)c2c(=O)cc(-c3ccc(O)c(O)c3)oc2c1 [luteolin 7-methyl ether] |  |  |  |  |  |  |  |  |  | Effect against HIV-1 IN (HIV-1 IN [1]): potent |
| O=c1cc(-c2ccc(O)c(O)c2)oc2cc(O)cc(O)c12 [luteolin] |  |  |  |  |  |  |  |  |  | Effect against HIV-1 IN (HIV-1 IN [1]): potent |
| O=C(O)c1ccc(O)c(O)c1 [protocatechuic acid] |  |  |  |  |  |  |  |  |  | % inhibition of HIV-1 IN (HIV-1 IN [1]; 100 μM): 46.0% |
